Laboratory results: patent US9873709B2 (priority 2013, dated 2018)

Test system: JAK1-dependent STAT6 phosphorylation downstream of IL-13 stimulation in TF-1 human erythroleukemia cells
Test: cells
Conditions: TF-1, read-out: IL-13-pSTAT6 IC50

| Structure (SMILES) | IC50 [nM] |
| --- | --- |
| O=C(c1ccc(Nc2nc3c(N4CCC(O)(c5ccc(Cl)cc5)CC4)cccn3n2)cc1)N1CCN2CCCC2C1 (centres unmarked) [Example 1-168, 3,4,6,7,8,8a-hexahydro-1H-pyrrolo[1,2-a]pyrazin-2-yl-[4-[[8-[4-(4-chlorophenyl)-4-hydroxy-1-piperidyl]-[1,2,4]triazolo[1,5-a]pyridin-2-yl]amino]phenyl] methanone] | 22.6 |
| O=C(NC1CCNC1)c1ccc(Nc2nc3c(N4CCC(O)(c5ccc(Cl)cc5)CC4)cccn3n2)cc1 (centres unmarked) [Example 1-176, 4-[[8-[4-(4-chlorophenyl)-4-hydroxy-1-piperidyl]-[1,2,4]triazolo[1,5-a]pyridin-2-yl]amino]-N-pyrrolidin-3-yl-benzamide] | 279 |
| O=C(NC1CCCNC1)c1ccc(Nc2nc3c(N4CCC(O)(c5ccc(Cl)cc5)CC4)cccn3n2)cc1 (centres unmarked) [Example 1-179, 4-[[8-[4-(4-chlorophenyl)-4-hydroxy-1-piperidyl]-[1,2,4]triazolo[1,5-a]pyridin-2-yl]amino]-N-(3-piperidyl)benzamide] | 84.3 |
| O=C(NCC1CCNC1)c1ccc(Nc2nc3c(N4CCC(O)(c5ccc(Cl)cc5)CC4)cccn3n2)cc1 (centres unmarked) [Example 1-180, 4-[[8-[4-(4-chlorophenyl)-4-hydroxy-1-piperidyl]-[1,2,4]triazolo[1,5-a]pyridin-2-yl]amino]-N-(pyrrolidin-3-ylmethyl)benzamide] | 322 |
| O=C(NC1CCNCC1)c1ccc(Nc2nc3c(N4CCC(O)(c5ccc(Cl)cc5)CC4)cccn3n2)cc1 [Example 1-181, 4-[[8-[4-(4-chlorophenyl)-4-hydroxy-1-piperidyl]-[1,2,4]triazolo[1,5-a]pyridin-2-yl]amino]-N-(4-piperidyl)benzamide] | 181 |
| O=C(NCC1CCCNC1)c1ccc(Nc2nc3c(N4CCC(O)(c5ccc(Cl)cc5)CC4)cccn3n2)cc1 (centres unmarked) [Example 1-183, 4-[[8-[4-(4-chlorophenyl)-4-hydroxy-1-piperidyl]-[1,2,4]triazolo[1,5-a]pyridin-2-yl]amino]-N-(3-piperidylmethyl) benzamide] | 536 |
| O=C(NCC1CCNCC1)c1ccc(Nc2nc3c(N4CCC(O)(c5ccc(Cl)cc5)CC4)cccn3n2)cc1 [Example 1-184, 4-[[8-[4-(4-chlorophenyl)-4-hydroxy-1-piperidyl]-[1,2,4]triazolo[1,5-a]pyridin-2-yl]amino]-N-(4-piperidylmethyl)] | 127 |
| O=C(NCCN1CCNCC1)c1ccc(Nc2nc3c(N4CCC(O)(c5ccc(Cl)cc5)CC4)cccn3n2)cc1 [Example 1-187] | 462 |
| O=C(NCC1CNCCO1)c1ccc(Nc2nc3c(N4CCC(O)(c5ccc(Cl)cc5)CC4)cccn3n2)cc1 (centres unmarked) [Example 1-188, 4-[[8-[4-(4-chlorophenyl)-4-hydroxy-1-piperidyl]-[1,2,4]triazolo[1,5-a]pyridin-2-yl]amino]-N-(morpholin-2-ylmethyl)benzamide] | 34.7 |
| NCC1CCN(C(=O)c2ccc(Nc3nc4c(N5CCC(O)(c6ccc(Cl)cc6)CC5)cccn4n3)cc2)CC1 [Example 1-193, [4-(aminomethyl)-1-piperidyl]-[4-[[8-[4-(4-chlorophenyl)-4-hydroxy-1-piperidyl]-[1,2,4]triazolo[1,5-a]pyridin-2-yl]amino]phenyl] methanone] | 249 |
| O=C(c1ccc(Nc2nc3c(N4CCC(O)(c5ccc(Cl)cc5)CC4)cccn3n2)cc1)N1CCNCC1CO (centres unmarked) [Example 1-196, [4-[[8-[4-(4-chlorophenyl)-4-hydroxy-1-piperidyl]-[1,2,4]triazolo[1,5-a]pyridin-2-yl]amino]phenyl]-[2-(hydroxymethyl)piperazin-1-yl]methanone] | 53.1 |
| O=C(c1ccc(Nc2nc3c(N4CCC(O)(c5ccc(Cl)cc5)CC4)cccn3n2)cc1)N1CC2CNCC2C1 (centres unmarked) [Example 1-197, 2,3,3a,4,6,6a-hexahydro-1H-pyrrolo[3,4-c]pyrrol-5-yl-[4-[[8-[4-(4-chlorophenyl)-4-hydroxy-1-piperidyl]-[1,2,4]triazolo[1,5-a]pyridin-2-yl]amino]phenyl] methanone] | 158 |
| O=C(N[C@H]1CCCNC1)c1ccc(Nc2nc3c(N4CCC(O)(c5ccc(Cl)cc5)CC4)cccn3n2)cc1 [Example 1-198, 4-[[8-[4-(4-chlorophenyl)-4-hydroxy-1-piperidyl]-[1,2,4]triazolo[1,5-a]pyridin-2-yl]amino]-N-[(3S)-3-piperidyl]benzamide] | 68.5 |
| O=C(c1ccc(Nc2nc3c(N4CCC(O)(c5ccc(Cl)cc5)CC4)cccn3n2)cc1)N1CC2(CCNCC2)C1 [Example 1-199, [4-[[8-[4-(4-chlorophenyl)-4-hydroxy-1-piperidyl]-[1,2,4]triazolo[1,5-a]pyridin-2-yl]amino]phenyl]-(2,7-diazaspiro[3.5]nonan-2-yl)methanone] | 106 |
| O=C(c1ccc(Nc2nc3c(N4CCC(O)(c5ccc(Cl)cc5)CC4)cccn3n2)cc1)N1CC2(CNC2)C1 [Example 1-203, [4-[[8-[4-(4-chlorophenyl)-4-hydroxy-1-piperidyl]-[1,2,4]triazolo[1,5-a]pyridin-2-yl]amino]phenyl]-(2,6-diazaspiro[3.3]heptan-2-yl)methanone] | 342 |
| O=C(c1ccc(Nc2nc3c(N4CCC(O)(c5ccc(Cl)cc5)CC4)cccn3n2)cc1)N1CCC2(CNC2)C1 [Example 1-205, [4-[[8-[4-(4-chlorophenyl)-4-hydroxy-1-piperidyl]-[1,2,4]triazolo[1,5-a]pyridin-2-yl]amino]phenyl]-(2,6-diazaspiro[3.4]octan-6-yl)methanone] | 522 |
| O=C(c1ccc(Nc2nc3c(N4CCC(O)(c5ccc(Cl)cc5)CC4)cccn3n2)cc1)N1CCC2(CCNC2)C1 (centres unmarked) [Example 1-207, [4-[[8-[4-(4-chlorophenyl)-4-hydroxy-1-piperidyl]-[1,2,4]triazolo[1,5-a]pyridin-2-yl]amino]phenyl]-(2,7-diazaspiro[4.4]nonan-2-yl)methanone] | 192 |
| O=C(c1ccc(Nc2nc3c(N4CCC(O)(c5ccc(Cl)cc5)CC4)cccn3n2)cc1)N1CC2(CCCNC2)C1 [Example 1-210, [4-[[8-[4-(4-chlorophenyl)-4-hydroxy-1-piperidyl]-[1,2,4]triazolo[1,5-a]pyridin-2-yl]amino]phenyl]-(2,8-diazaspiro[3.5]nonan-2-yl)methanone] | 43.5 |
| O=C(c1ccc(Nc2nc3c(N4CCC(O)(c5ccc(Cl)cc5)CC4)cccn3n2)cc1)N1CCC2(CCCNC2)C1 (centres unmarked) [Example 1-212, [4-[[8-[4-(4-chlorophenyl)-4-hydroxy-1-piperidyl]-[1,2,4]triazolo[1,5-a]pyridin-2-yl]amino]phenyl]-(2,9-diazaspiro[4.5]decan-2-yl)methanone] | 196 |
| O=C(c1ccc(Nc2nc3c(N4CCC(O)(c5ccc(Cl)cc5)CC4)cccn3n2)cc1)N1CCC2(CCNCC2)CC1 [Example 1-218, [4-[[8-[4-(4-chlorophenyl)-4-hydroxy-1-piperidyl]-[1,2,4]triazolo[1,5-a]pyridin-2-yl]amino]phenyl]-(3,9-diazaspiro[5.5]undecan-3-yl)methanone] | 165 |
| O=C(NCC1COC2(CCNCC2)C1)c1ccc(Nc2nc3c(N4CCC(O)(c5ccc(Cl)cc5)CC4)cccn3n2)cc1 (centres unmarked) [Example 1-220, 4-[[8-[4-(4-chlorophenyl)-4-hydroxy-1-piperidyl]-[1,2,4]triazolo[1,5-a]pyridin-2-yl]amino]-N-(1-oxa-8-azaspiro[4.5]decan-3-ylmethyl)benzamide] | 637 |
| O=C(NC1COC2(CCNCC2)C1)c1ccc(Nc2nc3c(N4CCC(O)(c5ccc(Cl)cc5)CC4)cccn3n2)cc1 (centres unmarked) [Example 1-221, 4-[[8-[4-(4-chlorophenyl)-4-hydroxy-1-piperidyl]-[1,2,4]triazolo[1,5-a]pyridin-2-yl]amino]-N-(1-oxa-8-azaspiro[4.5]decan-3-yl)benzamide] | 866 |
| O=C(c1ccc(Nc2nc3c(N4CCC(O)(c5ccc(Cl)cc5)CC4)cccn3n2)cc1)N1CC2(CCNC2)C1 [Example 1-224, [4-[[8-[4-(4-chlorophenyl)-4-hydroxy-1-piperidyl]-[1,2,4]triazolo[1,5-a]pyridin-2-yl]amino]phenyl]-(2,7-diazaspiro[3.4]octan-2-yl)methanone] | 111 |
| O=C(c1ccc(Nc2nc3c(N4CCC(O)(c5ccc(Cl)cc5)CC4)cccn3n2)cc1)N1CCOC2(CCCNC2)C1 (centres unmarked) [Example 1-225, [4-[[8-[4-(4-chlorophenyl)-4-hydroxy-1-piperidyl]-[1,2,4]triazolo[1,5-a]pyridin-2-yl]amino]phenyl]-(1-oxa-4,8-diazaspiro[5.5]undecan-4-yl)methanone] | 30.8 |
| O=C(c1ccc(Nc2nc3c(N4CCC(O)(c5ccc(Cl)cc5)CC4)cccn3n2)cc1)N1CCC2(CCCN2)CC1 [Example 1-226, [4-[[8-[4-(4-chlorophenyl)-4-hydroxy-1-piperidyl]-[1,2,4]triazolo[1,5-a]pyridin-2-yl]amino]phenyl]-(1,8-diazaspiro[4.5]decan-8-yl)methanone] | 79.4 |
| O=C(c1ccc(Nc2nc3c(N4CCC(O)(c5ccc(Cl)cc5)CC4)cccn3n2)cc1)N1CCC2(CC1)CNCCO2 [Example 1-230, [4-[[8-[4-(4-chlorophenyl)-4-hydroxy-1-piperidyl]-[1,2,4]triazolo[1,5-a]pyridin-2-yl]amino]phenyl]-(1-oxa-4,9-diazaspiro[5.5]undecan-9-yl)methanone] | 58.1 |
| O=C(c1ccc(Nc2nc3c(N4CCC(O)(c5ccc(Cl)cc5)CC4)cccn3n2)cc1)N1CCOC2(CCNCC2)C1 [Example 1-231, [4-[[8-[4-(4-chlorophenyl)-4-hydroxy-1-piperidyl]-[1,2,4]triazolo[1,5-a]pyridin-2-yl]amino]phenyl]-(1-oxa-4,9-diazaspiro[5.5]undecan-4-yl)methanone] | 916 |
| O=C(c1ccc(Nc2nc3c(N4CCC(O)(c5ccc(Cl)cc5)CC4)cccn3n2)cc1)N1CCCC12CCCNC2 (centres unmarked) [Example 1-233, [4-[[8-[4-(4-chlorophenyl)-4-hydroxy-1-piperidyl]-[1,2,4]triazolo[1,5-a]pyridin-2-yl]amino]phenyl]-(1,9-diazaspiro[4.5]decan-1-yl)methanone] | 164 |
| O=C(c1ccc(Nc2nc3c(N4CCC(O)(c5ccc(Cl)cc5)CC4)cccn3n2)cc1)N1C[C@@H]2CCN[C@@H]2C1 [Example 1-234] | 36.1 |
